Assay results reported in the supplement of paper PMC4862054.

Legend:
MDA-MB-453 [1] = assay: normalised viability (% of control), CellTiter-Blue; higher = more viable cells (about 100 = DMSO control); details: incubation time: 72 h
Method: (§1)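 DSRT, CellTiter-Blue viability, 72 h incubation. Signal is normalised to DMSO and benzethonium chloride controls. Value is the normalised response at dose 6.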

HDQ-P1 [2] = assay: as above; details: incubation time: 72 h
Method: as §1

DU-4475 [3] = assay: as above; details: incubation time: 72 h
Method: as §1

CAL-85-1 [4] = assay: as above; details: incubation time: 72 h
Method: as §1

CAL-148 [5] = assay: as above; details: incubation time: 72 h
Method: as §1

CAL-51 [6] = assay: as above; details: incubation time: 72 h
Method: as §1

CAL-120 [7] = assay: as above; details: incubation time: 72 h
Method: (§2)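 DSRT, CellTiter-Blue viability, 72 h incubation. Signal is normalised to DMSO and benzethonium chloride controls. Value is the normalised response at dose 3.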

Hs578T [8] = assay: as above; details: incubation time: 72 h
Method: as §2

MDA-MB-453 [9] = assay: as above; details: incubation time: 72 h; remark: listed apart in the source
Method: as §2

MDA-MB-231 [10] = assay: as above; details: incubation time: 72 h
Method: as §2

MFM-223 = assay: as above; details: incubation time: 72 h
Method: as §2

DU-4475 [11] = assay: as above; details: incubation time: 72 h; remark: listed apart in the source
Method: as §2

BT-549 [12] = assay: as above; details: incubation time: 72 h
Method: as §2

CAL-148 [13] = assay: as above; details: incubation time: 72 h; remark: listed apart in the source
Method: as §2

MDA-MB-468 [14] = assay: as above; details: incubation time: 72 h
Method: as §2

MDA-MB-453 [15] = assay: as above; details: incubation time: 72 h; remark: listed apart in the source
Method: (§3)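 DSRT, CellTiter-Blue viability, 72 h incubation. Signal is normalised to DMSO and benzethonium chloride controls. Value is the normalised response at dose 7.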

HDQ-P1 [16] = assay: as above; details: incubation time: 72 h; remark: listed apart in the source
Method: as §3

DU-4475 [17] = assay: as above; details: incubation time: 72 h; remark: listed apart in the source
Method: as §3

CAL-85-1 [18] = assay: as above; details: incubation time: 72 h; remark: listed apart in the source
Method: as §3

CAL-148 [19] = assay: as above; details: incubation time: 72 h; remark: listed apart in the source
Method: as §3

CAL-51 [20] = assay: as above; details: incubation time: 72 h; remark: listed apart in the source
Method: as §3

MDA-MB-453 [21] = details: 72 h
In short: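 Breast cancer cell lines in 20 µl suspension were seeded onto 384-well plates pre-loaded with compound dissolved in 5 µl medium, then incubated 72 h. For viability, 2.5 µl CellTiter-Blue was added for 2 h at 37 °C and fluorescence read at 560/590 nm. Each plate was normalised to vehicle and a positive kill control and checked by Z'-factor. EC50 comes from the fitted percent-inhibition dose-response curve, censored at the highest concentration; rows with zero drug sensitivity score were dropped.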

CAL-120 [22] = details: 72 h
In short: (§4)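 Seeding of breast cancer cell lines (20 µl suspension) was done into 384-well plates pre-loaded with compound at 5 concentrations, 10-fold apart, covering a compound-specific 10,000-fold range. The plates were incubated for 72 h, read for CellTox Green fluorescence (485/520 nm), and then read for CellTiter-Glo luminescence after 10 min at room temperature. Every plate was normalised to 0.1 % DMSO and a positive kill control. Curve fitting gave the EC50, censored at the top concentration.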

Hs578T [23] = details: 72 h
In short: as §4

MDA-MB-453 [24] = details: 72 h; remark: listed apart in the source
In short: as §4

HCC1937 = details: 72 h
In short: as §4

CAL-85-1 [25] = details: 72 h
In short: as §4

BT-549 [26] = details: 72 h
In short: as §4

MCF-10A = details: 72 h
In short: as §4

BT-474 = details: 72 h
In short: as §4

CAL-51 [27] = details: 72 h
In short: as §4

SK-BR-3 = details: 72 h
In short: as §4

MDA-MB-468 [28] = details: 72 h
In short: as §4

MDA-MB-436 = details: 72 h
In short: as §4

MDA-MB-231 [29] = details: 72 h
In short: as §4

Compound: Cn1c(=O)n(-c2ccc(C(C)(C)C#N)cc2)c2c3cc(-c4cnc5ccccc5c4)ccc3ncc21 [NVP-BEZ235]
- normalised viability (MDA-MB-453 [1]; 30 nM): 21.9%
- normalised viability (HDQ-P1 [2]; 30 nM): 39.8%
- normalised viability (DU-4475 [3]; 30 nM): 65.2%
- normalised viability (CAL-85-1 [4]; 30 nM): 47.8%
- normalised viability (CAL-148 [5]; 30 nM): 32.4%
- normalised viability (CAL-51 [6]; 30 nM): 29.5%
- normalised viability (CAL-120 [7]; 10 nM): 57.4%
- normalised viability (Hs578T [8]; 10 nM): 56.7%
- normalised viability (MDA-MB-453 [9]; 1 nM): 96.5%
- normalised viability (MDA-MB-231 [10]; 10 nM): 72.4%
- normalised viability (MFM-223; 10 nM): 51.9%
- normalised viability (DU-4475 [11]; 1 nM): 101%
- normalised viability (BT-549 [12]; 10 nM): 68.2%
- normalised viability (CAL-148 [13]; 1 nM): 108%
- normalised viability (MDA-MB-468 [14]; 10 nM): 86.6%
- normalised viability (MDA-MB-453 [15]; 100 nM): 16.8%
- normalised viability (HDQ-P1 [16]; 100 nM): 38.3%
- normalised viability (DU-4475 [17]; 100 nM): 37.2%
- normalised viability (CAL-85-1 [18]; 100 nM): 31.4%
- normalised viability (CAL-148 [19]; 100 nM): 16.1%
- normalised viability (CAL-51 [20]; 100 nM): 22.3%
- EC50, CellTiter-Blue viability (MDA-MB-453 [21]): 0.00831 µM

Compound: Cn1cncc1[C@@](N)(c1ccc(Cl)cc1)c1ccc2c(c1)c(-c1cccc(Cl)c1)cc(=O)n2C [Tipifarnib]
- normalised viability (MDA-MB-453 [1]; 300 nM): 77.2%
- normalised viability (HDQ-P1 [2]; 300 nM): 52.5%
- normalised viability (DU-4475 [3]; 300 nM): 43.9%
- normalised viability (CAL-85-1 [4]; 300 nM): 64%
- normalised viability (CAL-148 [5]; 300 nM): 44.9%
- normalised viability (CAL-51 [6]; 300 nM): 60.2%
- normalised viability (CAL-120 [7]; 100 nM): 57%
- normalised viability (Hs578T [8]; 100 nM): 70.1%
- normalised viability (MDA-MB-453 [9]; 10 nM): 93%
- normalised viability (MDA-MB-231 [10]; 100 nM): 71.8%
- normalised viability (MFM-223; 100 nM): 70.3%
- normalised viability (DU-4475 [11]; 10 nM): 92.8%
- normalised viability (BT-549 [12]; 100 nM): 95.3%
- normalised viability (CAL-148 [13]; 10 nM): 83.2%
- normalised viability (MDA-MB-468 [14]; 100 nM): 96.7%
- normalised viability (MDA-MB-453 [15]; 1000 nM): 49.1%
- normalised viability (HDQ-P1 [16]; 1000 nM): 66.6%
- normalised viability (DU-4475 [17]; 1000 nM): 40.6%
- normalised viability (CAL-85-1 [18]; 1000 nM): 62.8%
- normalised viability (CAL-148 [19]; 1000 nM): 42.9%
- normalised viability (CAL-51 [20]; 1000 nM): 59.9%
- EC50, CellTiter-Blue viability (MDA-MB-453 [21]): 1.43 µM
- EC50, CellTiter-Glo (CAL-120 [22]): 1.37 µM
- EC50, CellTiter-Glo (Hs578T [23]): 7.87 µM
- EC50, CellTiter-Glo (MDA-MB-453 [24]): 0.00961 µM
- EC50, CellTiter-Glo (HCC1937): 0.126 µM
- EC50, CellTiter-Glo (CAL-85-1 [25]): 9.99 µM
- EC50, CellTiter-Glo (BT-549 [26]): 5.42 µM
- EC50, CellTiter-Glo (MCF-10A): 0.237 µM
- EC50, CellTiter-Glo (BT-474): 6.9 µM
- EC50, CellTiter-Glo (CAL-51 [27]): 0.0825 µM
- EC50, CellTiter-Glo (SK-BR-3): 0.414 µM
- EC50, CellTiter-Glo (MDA-MB-468 [28]): 3.33 µM
- EC50, CellTiter-Glo (MDA-MB-436): 0.607 µM

Compound: CN(C)C[C@@H]1CCn2cc(c3ccccc32)C2=C(C(=O)NC2=O)c2cn(c3ccccc23)CCO1 [Ruboxistaurin]
- normalised viability (MDA-MB-453 [1]; 300 nM): 104%
- normalised viability (HDQ-P1 [2]; 300 nM): 48.4%
- normalised viability (DU-4475 [3]; 300 nM): 82.2%
- normalised viability (CAL-85-1 [4]; 300 nM): 106%
- normalised viability (CAL-148 [5]; 300 nM): 99%
- normalised viability (CAL-51 [6]; 300 nM): 91%
- normalised viability (CAL-120 [7]; 100 nM): 126%
- normalised viability (Hs578T [8]; 100 nM): 68.9%
- normalised viability (MDA-MB-453 [9]; 10 nM): 96.7%
- normalised viability (MDA-MB-231 [10]; 100 nM): 95.8%
- normalised viability (MFM-223; 100 nM): 105%
- normalised viability (DU-4475 [11]; 10 nM): 101%
- normalised viability (BT-549 [12]; 100 nM): 89%
- normalised viability (CAL-148 [13]; 10 nM): 112%
- normalised viability (MDA-MB-468 [14]; 100 nM): 90.1%
- normalised viability (MDA-MB-453 [15]; 1000 nM): 102%
- normalised viability (HDQ-P1 [16]; 1000 nM): 67.1%
- normalised viability (DU-4475 [17]; 1000 nM): 73.9%
- normalised viability (CAL-85-1 [18]; 1000 nM): 122%
- normalised viability (CAL-148 [19]; 1000 nM): 101%
- normalised viability (CAL-51 [20]; 1000 nM): 76.8%
- EC50, CellTiter-Blue viability (MDA-MB-453 [21]): 4.24 µM
- EC50, CellTiter-Glo (MDA-MB-453 [24]): 2.92 µM
- EC50, CellTiter-Glo (MDA-MB-231 [29]): 2.59 µM
- EC50, CellTiter-Glo (HCC1937): 6.18 µM
- EC50, CellTiter-Glo (CAL-85-1 [25]): 3.47 µM
- EC50, CellTiter-Glo (BT-549 [26]): 2.46 µM
- EC50, CellTiter-Glo (MCF-10A): 7.23 µM
- EC50, CellTiter-Glo (BT-474): 2.39 µM
- EC50, CellTiter-Glo (CAL-51 [27]): 2.77 µM
- EC50, CellTiter-Glo (SK-BR-3): 2.16 µM
- EC50, CellTiter-Glo (MDA-MB-468 [28]): 1.7 µM
- EC50, CellTiter-Glo (MDA-MB-436): 2.67 µM
